Pest or weed control and YFM data for 17 molecules are collected here from patent US9924717B2, “Molecules having pesticidal utility, and intermediates, compositions, and processes, related thereto” (Dow AgroSciences LLC, priority 2016, dated 2018).

Assay type in all cases: in vivo
Assay [1] deals with Beet Armyworm (Spodoptera exigua, LAPHEG) (BAW). Kind of assay: Bioassays on Beet Armyworm (BAW), 128-well diet tray assay. The conditions noted are these: Table ABC rating, Beet Armyworm. As for the experimental part:
(§1) Example A: Bioassays on Beet Armyworm (Spodoptera exigua, LAPHEG) (“BAW”), Corn Earworm (Helicoverpa zea, Helize) (“CEW”), and Cabbage Looper (Trichoplusia ni, TRIPNI) (“CL”)
(§2) Certain molecules disclosed in this document were tested against BAW, CEW, and CL using procedures described in the following examples. In the reporting of the results, the “BAW, CEW, & CL Rating Table” was used (See Table Section).
Bioassays on BAW were conducted using a 128-well diet tray assay. one to five second instar BAW larvae were placed in each well (3 mL) of the diet tray that had been previously filled with 1 mL of artificial diet to which 50 μg/cm^2 of the test molecule (dissolved in 50 μL of 90:10 acetone-water mixture) had been applied (to each of eight wells) and then allowed to dry. Trays were covered with a clear self-adhesive cover and held at 25° C., 14:10 light-dark for five to seven days. Percent mortality was recorded for the larvae in each well; activity in the eight wells was then averaged. The results are indicated in the table entitled “Table ABC: Biological Results” (See Table Section).
(§3) Bioassays on BAW and CL were conducted according to the procedures outlined in Example A: Bioassays on Beet Armyworm (“BAW”) and Cabbage Looper (“CL”) using the indicated concentrations.

Assay [2] deals with Cabbage Looper (Trichoplusia ni, TRIPNI) (CL). The assay can be described thus: Bioassays on Cabbage Looper (CL), 128-well diet tray assay. The conditions noted are these: Table ABC rating, Cabbage Looper. As for the experimental part: as §1, §2
Bioassays on CL were conducted using a 128-well diet tray assay. one to five second instar CL larvae were placed in each well (3 mL) of the diet tray that had been previously filled with 1 mL of artificial diet to which 50 μg/cm^2 of the test molecule (dissolved in 50 μL of 90:10 acetone-water mixture) had been applied (to each of eight wells) and then allowed to dry. Trays were covered with a clear self-adhesive cover and held at 25° C., 14:10 light-dark for five to seven days. Percent mortality was recorded for the larvae in each well; activity in the eight wells was then averaged. The results are indicated in the table entitled “Table ABC: Biological Results” (See Table Section).
as §3

Assay [3] has as its system Yellow Fever Mosquito (Aedes aegypti, AEDSAE) (YFM). The assay can be described thus: Bioassays on Yellow Fever Mosquito (YFM), 96-well plate larval assay. The conditions noted are these: Table ABC rating. As for the experimental part: Example C: Bioassays on Yellow Fever Mosquito (Aedes aegypti, AEDSAE) (“YFM”)
Certain molecules disclosed in this document were tested against YFM using procedures described in the following paragraph. In the reporting of the results, the “GPA & YFM Rating Table” was used (See Table Section).
Master plates containing 400 μg of a molecule dissolved in 100 μL of dimethyl sulfoxide (DMSO) (equivalent to a 4000 ppm solution) are used. A master plate of assembled molecules contains 15 μL per well. To this plate, 135 μL of a 90:10 water:acetone mixture is added to each well. A robot (Biomek® NXP Laboratory Automation Workstation) is programmed to dispense 15 μL aspirations from the master plate into an empty 96-well shallow plate (“daughter” plate). There are 6 reps (“daughter” plates) created per master. The created daughter plates are then immediately infested with YFM larvae.
The day before plates are to be treated, mosquito eggs are placed in Millipore water containing liver powder to begin hatching (4 g. into 400 mL). After the daughter plates are created using the robot, they are infested with 220 μL of the liver powder/larval mosquito mixture (about 1 day-old larvae). After plates are infested with mosquito larvae, a non-evaporative lid is used to cover the plate to reduce drying. Plates are held at room temperature for 3 days prior to grading. After 3 days, each well is observed and scored based on mortality. The results are indicated in the table entitled “Table ABC: Biological Results” (See Table Section).

As for `O=C(NC1CCC(F)(F)CC1)c1ccc(/C(F)=C/C(c2cc(Cl)cc(Cl)c2)C(F)(F)F)cc1C(F)(F)F` (stereo not drawn) [F25, (Z)-4-(3-(3,5-Dichlorophenyl)-1,4,4,4-tetrafluorobut-1-en-1-yl)-N-(4,4-difluorocyclohexyl)-2-(trifluoromethyl)benzamide], the pest or weed control at 50 µg/cm2 in assay [1] and in assay [2] was 50 to 100% throughout. The YFM result in assay [3] was “A (80-100)”.
On to `O=C(Nc1ccc(Cl)nc1)c1ccc(/C(F)=C/C(c2cc(Cl)c(Cl)c(Cl)c2)C(F)(F)F)cc1C(F)(F)F` (stereo not drawn) [F26], for which the pest or weed control at 50 µg/cm2 in assay [1] and in assay [2] was 50 to 100% in each case. The YFM entry in assay [3] was “A (80-100)”.
Regarding `CC(NC(=O)c1ccc(/C(F)=C/C(c2cc(Cl)c(F)c(Cl)c2)C(F)(F)F)cc1C(F)(F)F)C(F)(F)F` (stereo not drawn) [F27, (Z)-4-(3-(3,5-Dichloro-4-fluorophenyl)-1,4,4,4-tetrafluorobut-1-en-1-yl)-2-(trifluoromethyl)-N-(1,1,1-trifluoropropan-2-yl)benzamide], the pest or weed control at 50 µg/cm2 in assay [1] and in assay [2] was 50 to 100% each time. For the same molecule, the YFM entry in assay [3] was “A (80-100)”.
For `CC(NC(=O)c1ccc(/C(F)=C/C(c2cc(Br)cc(Br)c2)C(F)(F)F)cc1C(F)(F)F)C(F)(F)F` (stereo not drawn) [F28, (Z)-4-(3-(3,5-Dibromophenyl)-1,4,4,4-tetrafluorobut-1-en-1-yl)-2-(trifluoromethyl)-N-(1,1,1-trifluoropropan-2-yl)benzamide], the pest or weed control at 50 µg/cm2 in assay [1] and in assay [2] was 50 to 100% in each case. In addition, the YFM result in assay [3] was “A (80-100)”.
For `CN(CC(F)(F)F)C(=O)c1ccc(/C(F)=C/C(c2cc(Cl)c(Cl)c(Cl)c2)C(F)(F)F)cc1C(F)(F)F` (stereo not drawn) [F29, (Z)—N-Methyl-4-(1,4,4,4-tetrafluoro-3-(3,4,5-trichlorophenyl)but-1-en-1-yl)-N-(2,2,2-trifluoroethyl)-2-(trifluoromethyl)benzamide], the pest or weed control at 50 µg/cm2 in assay [1] and in assay [2] was 50 to 100% in each case. For the same molecule, the YFM result in assay [3] was “A (80-100)”.
`Cc1cc(C(/C=C(\F)c2ccc(C(=O)NC(C)C(F)(F)F)c(C(F)(F)F)c2)C(F)(F)F)cc(C)c1Cl` (stereo not drawn) [F30, 4-((Z)-3-(4-Chloro-3,5-dimethylphenyl)-1,4,4,4-tetrafluorobut-1-en-1-yl)-2-(trifluoromethyl)-N-(1,1,1-trifluoropropan-2-yl)benzamide]: the pest or weed control at 50 µg/cm2 in assay [1] and in assay [2] was 50 to 100% in each case. The YFM entry in assay [3] is listed as “A (80-100)”.
With `Cc1cc(C(/C=C(\F)c2ccc(C(=O)NC3CCC(F)(F)CC3)c(C(F)(F)F)c2)C(F)(F)F)cc(C)c1Cl` (stereo not drawn) [F31, (Z)-4-(3-(4-Chloro-3,5-dimethylphenyl)-1,4,4,4-tetrafluorobut-1-en-1-yl)-N-(4,4difluorocyclohexyl)-2-(trifluoromethyl)benzamide], the pest or weed control at 50 µg/cm2 in assay [1] and in assay [2] was 50 to 100% in each case. Also, the YFM result in assay [3] is on record as “A (80-100)”.
For the molecule `O=C(NC1CCC(F)(F)CC1)c1ccc(/C(F)=C/C(c2cc(Br)c(Cl)c(Br)c2)C(F)(F)F)cc1C(F)(F)F` (stereo not drawn) [F32, (Z)-4-(3-(3,5-Dibromo-4-chlorophenyl)-1,4,4,4-tetrafluorobut-1-en-1-yl)-N-(4,4-difluorocyclohexyl)-2-(trifluoromethyl)benzamide], the pest or weed control at 50 µg/cm2 in assay [1] and in assay [2] was 50 to 100% in each case. The YFM result in assay [3] was “A (80-100)”.
Turning to `F/C(=C\C(c1cc(Cl)c(Cl)c(Cl)c1)C(F)(F)F)c1ccc(C(=S)NCC(F)(F)F)c(C(F)(F)F)c1` (stereo not drawn) [F33, (Z)-4-(1,4,4,4-tetrafluoro-3-(3,4,5-trichlorophenyl)but-1-en-1-yl)-N-(2,2,2-trifluoroethyl)-2-(trifluoromethyl)benzothioamide], the pest or weed control at 50 µg/cm2 in assay [1] and in assay [2] was 50 to 100% each time. The YFM entry in assay [3] is reported as “B (More than 0-Less than 80)”.
In the case of `CN(CC(F)(F)F)C(=S)c1ccc(/C(F)=C/C(c2cc(Cl)c(Cl)c(Cl)c2)C(F)(F)F)cc1C(F)(F)F` (stereo not drawn) [F34, (Z)—N-Methyl-4-(1,4,4,4-tetrafluoro-3-(3,4,5-trichlorophenyl)but-1-en-1-yl)-N-(2,2,2-trifluoroethyl)-2-(trifluoromethyl)benzothioamide], the pest or weed control at 50 µg/cm2 in assay [1] and in assay [2] was 50 to 100% in each case. For the same molecule, in assay [3], the YFM result was “B (More than 0-Less than 80)”.
With `O=C(NC1CCC(F)(F)CC1)c1ccc(/C(F)=C/C(c2cc(Br)cc(Br)c2)C(F)(F)F)cc1C(F)(F)F` (stereo not drawn) [F40, (Z)-4-(3-(3,5-Dibromophenyl)-1,4,4,4-tetrafluorobut-1-en-1-yl)-N-(4,4-difluorocyclohexyl)-2-(trifluoromethyl)benzamide], the pest or weed control at 50 µg/cm2 in assay [1] and in assay [2] was 50 to 100% each time. In assay [3], the YFM entry is “A (80-100)”.
For the molecule `O=C(NC1CCC(F)(F)CC1)c1ccc(/C(F)=C/C(c2cc(Cl)c(F)c(Cl)c2)C(F)(F)F)cc1C(F)(F)F` (stereo not drawn) [F41, (Z)-4-(3-(3,5-Dichloro-4-fluorophenyl)-1,4,4,4-tetrafluorobut-1-en-1-yl)-N-(4,4-difluorocyclohexyl)-2-(trifluoromethyl)benzamide], the pest or weed control at 50 µg/cm2 in assay [1] and in assay [2] was 50 to 100% throughout. Further, the YFM result in assay [3] is reported as “A (80-100)”.
Regarding `O=C(NC1CC1)c1ccc(/C(F)=C/C(c2cc(Br)cc(Br)c2)C(F)(F)F)cc1C(F)(F)F` (stereo not drawn) [F42, (Z)—N-Cyclopropyl-4-(3-(3,5-dibromophenyl)-1,4,4,4-tetrafluorobut-1-en-1-yl)-2-(trifluoromethyl)benzamide], the pest or weed control at 50 µg/cm2 in assay [1] and in assay [2] was 50 to 100% in each case. For the same molecule, the YFM entry in assay [3] is on record as “A (80-100)”.
`O=C(NC1CC1)c1ccc(/C(F)=C/C(c2cc(Cl)c(F)c(Cl)c2)C(F)(F)F)cc1C(F)(F)F` (stereo not drawn) [F43, (Z)—N-Cyclopropyl-4-(3-(3,5-dichloro-4-fluorophenyl)-1,4,4,4-tetrafluorobut-1-en-1-yl)-2-(trifluoromethyl)benzamide]: the pest or weed control at 50 µg/cm2 in assay [1] and in assay [2] was 50 to 100% throughout. The YFM result in assay [3] is “A (80-100)”.
Regarding `O=C(NC1CCC(F)(F)CC1)c1ccc(/C(F)=C/C(c2ccc(Br)c(Br)c2)C(F)(F)F)cc1C(F)(F)F` (stereo not drawn) [F44, (Z)-4-(3-(3,4-Dibromophenyl)-1,4,4,4-tetrafluorobut-1-en-1-yl)-N-(4,4-difluorocyclohexyl)-2-(trifluoromethyl)benzamide], the pest or weed control at 50 µg/cm2 in assay [1] and in assay [2] was 50 to 100% in each case. In addition, the YFM result in assay [3] was “A (80-100)”.
With `CC(NC(=O)c1ccc(/C(F)=C/C(c2ccc(Br)c(Br)c2)C(F)(F)F)cc1C(F)(F)F)C(F)(F)F` (stereo not drawn) [F45, 4-((Z)-3-(3,4-Dibromophenyl)-1,4,4,4-tetrafluorobut-1-en-1-yl)-2-(trifluoromethyl)-N-(1,1,1-trifluoropropan-2-yl)benzamide], the pest or weed control at 50 µg/cm2 in assay [1] and in assay [2] was 50 to 100% in each case. In assay [3], the YFM result is “B (More than 0-Less than 80)”.
With `O=C(NC1CC1)c1ccc(/C(F)=C/C(c2ccc(Br)c(Br)c2)C(F)(F)F)cc1C(F)(F)F` (stereo not drawn) [F46, (Z)—N-Cyclopropyl-4-(3-(3,4-dibromophenyl)-1,4,4,4-tetrafluorobut-1-en-1-yl)-2-(trifluoromethyl)benzamide], the pest or weed control at 50 µg/cm2 in assay [1] and in assay [2] was 50 to 100% throughout. In assay [3], the YFM result was “A (80-100)”.

What is called pest or weed control is the degree to which the test organism was suppressed or injured, in per cent. Low values mean weak suppression, high ones strong suppression.
